Data on five molecules can be found in patent US20090203644A1, “Compositions for treating and/or preventing diseases characterized by the presence of metal ions” (GrenPharma LLC, priority 2004, published 2009).

The subject of data set [1] is human subject. The settings on record: in vivo, po.
Data set [2] deals with MDCK cells.
Data set [3] concerns A-beta antigen. Further details: species or system human.
The test system of data set [4] is A-beta peptide. Set-up: species or system human.
Data set [5] addresses A-beta peptide fragment (Homo sapiens, UniProt P05067). The data set can be described thus: CD helix-coil reversal and pretreatment experiments (Example 11). In kind it is biochemical.
In data set [6] the target is A-beta1-42 peptide (Homo sapiens, UniProt P05067). In kind it is biochemical.
Sequence of A-beta1-42 peptide (P05067 672-713): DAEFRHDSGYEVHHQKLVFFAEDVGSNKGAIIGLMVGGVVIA
The subject of data set [7] is Caco-2 cells.
For data set [8], the target named is A-beta peptide (Homo sapiens, UniProt P05067). It is filed as biochemical.
Sequence of A-beta peptide (Homo sapiens, UniProt P05067) (P05067 672-713): as above
The conditions of data set [9]: in vivo; cited from earlier work.
For data set [10] the following is noted: 20 mM in 25 mM or 100 mM MOPS, pH 7.1.
A short description of data set [11]: Permeation of Transwell membranes alone (wells without cells).

“Also recorded” adds a separate entry of the source. Read-outs that look alike come from different tables or passages of the source.

Sequence of A-beta peptide fragment (P05067 672-713): as above

On to `C[Si](C)(Cl)CC[Si](C)(C)Cl`, for which, in data set [1], the “effect on development of neurofibrillary tangles and senile plaques” value is “interferes with further development of neurofibrillary tangles and senile plaques”.
For `C[Si](Cl)(Cl)CCC#N` [CEMS, 2-cyanoethylmethyldichlorosilane], in [2] (dog), the “Total Permeation Coefficient (cm/sec) Mean ± SD, where applicable, MDCK” value was found to be 1.3e-06 cm/s. For the same molecule, in data set [3], the “total extracted” value came out at 1.4 fmol. Moreover, in [4], the “total extracted” value came out at 4.5 fmol. Further, in data set [5], the “protection against loss of helicity upon addition of Al(ClO4)3” value was “protection against loss of helicity”, the “recovery of helical structure (CD)” value is listed as “recovery of helical structure”, the “recovery of helicity (CD)” value is recorded as “recovery of helicity” and the “recovery of helicity in Al-denatured peptide / reversal of aluminum-induced denaturation (CD)” value was “appeared to reverse aluminum-induced denaturation; also recorded: recovery of helicity”. In data set [6], the “amount of Al added until which helicity was preserved” value is given as “about 1 equivalent” and the “protection of helical structure of A-beta1-42 against amyloid formation by aluminum (III)” value is listed as “protection of the helical structure”. In addition, in [7] (human, Caco-2), the “Permeation Coefficient (cm/sec) Mean ± SD, where applicable” value is 4.6e-06 cm/s and the “Total Permeation Coefficient (cm/sec) Mean ± SD, where applicable, Caco-2” value amounted to 4.6e-06 cm/s. In data set [8], the “protection from and/or reversal of metal-induced aggregation (DLS)” value is “protection against Al^3+-induced aggregation”.
Turning to `O=C(O)CN(CCN(CC(=O)O)CC(=O)O)CC(=O)O` [EDTA, ethylenediaminetetraacetic acid], the “time typical doses last in the body” value in data set [9] is reported as “about 1 hour”.
For the molecule `C[Si](Cl)(Cl)CC[Si](C)(Cl)Cl` [compound 1042, 1,2-(methyldichlorosilyl)ethane], in [2], the “Cell Permeation Coefficient (cm/sec) MDCK” value turned out to be 5.6e-05 cm/s; the “Total Permeation Coefficient (cm/sec) Mean ± SD, where applicable, MDCK” value is given as 1.8 ± 1.2 × 10^−5 cm/sec; the “cell permeation coefficient compared with mannitol, MDCK” value is “at least ten times greater”; the “crossing of the epithelial barrier in the MDCK model” value is “cross the epithelial barrier relatively efficiently”. For the same molecule, the “permeation across MDCK cells compared with mannitol” value in [2] is “at least ten times greater”. Further, in [3], the “share of total antigen released to the extract” value is given as “approximately 12%” and the “total extracted” value is listed as 14.0 fmol. The “time for which solutions were free of precipitate or colloidal suspensions / stable after preparation” value in data set [10] is given as “at least 24 hours”. Moreover, in data set [4], the “amyloid extracted compared with MOPS / buffer controls” value is given as “more amyloid”, the “share of total antigen released to the extract” value was “approximately 6%” and the “total extracted” value came to 17.2 fmol. Further, in [5] (TFE solution, Al(ClO4)3), the “recovery of helicity in Al-denatured peptide / reversal of aluminum-induced denaturation (CD)” value is “recovery of helicity”. Besides, in data set [7] (Caco-2), the “Cell Permeation Coefficient (cm/sec) Caco-2” value came out at 6.7e-05 cm/s; the “Permeation Coefficient (cm/sec) Mean ± SD, where applicable” value is 2.5e-05 cm/s; the “Total Permeation Coefficient (cm/sec) Mean ± SD, where applicable, Caco-2” value is 1.9 ± 1.1 × 10^−5 cm/sec; the “cell permeation coefficient compared with mannitol, Caco-2” value is “at least ten times greater”. Also, in data set [7] (Caco-2), the “crossing of the epithelial barrier in the Caco-2 model” value is listed as “cross the epithelial barrier relatively efficiently” and the “permeation across Caco-2 cells compared with mannitol” value is listed as “at least ten times greater”.
On to `OC[C@@H](O)[C@@H](O)[C@H](O)[C@H](O)CO` [mannitol, reference compound], for which, in data set [2] (dog, 60 min), the “Cell Permeation Coefficient (cm/sec) MDCK” value was determined as 1.4e-06 cm/s. In [2] (dog, 60 min, 20 mM), the “Total Permeation Coefficient (cm/sec) Mean ± SD, where applicable, MDCK” value is on record as 1.3 ± 1.0 × 10^−6 cm/sec. Further, in data set [11], the “Transwell Permeation Coeff. Mean ± SD, where applicable” value was 3.6 ± 0.3 × 10^−5 cm/sec. Further, in data set [7] (human, Caco-2, 60 min), the “Cell Permeation Coefficient (cm/sec) Caco-2” value amounted to 2.6e-06 cm/s. Besides, in data set [7] (human, Caco-2, 60 min, 20 mM), the “Permeation Coefficient (cm/sec) Mean ± SD, where applicable” value is recorded as 1.9 ± 1.9 × 10^−6 cm/sec and the “Total Permeation Coefficient (cm/sec) Mean ± SD, where applicable, Caco-2” value is 1.9 ± 1.9 × 10^−6 cm/sec.
